{
  "source": "ChEMBL document CHEMBL3751764",
  "about": "“Synthesis and in vitro antiproliferative activity of novel pyrazolo[3,4-d]pyrimidine derivatives” (Medchemcomm, 2015)",
  "key": {"[1]": {"experiment": "Cytotoxicity against human Caki1 cells after 72 hrs by SRB assay", "assay_type": "functional", "settings": "CAKI-1, 72 h"}, "M14": {"test_system": "M14", "experiment": "Cytotoxicity against human M14 cells after 72 hrs by SRB assay", "assay_type": "functional", "settings": "M14, 72 h"}, "[2]": {"experiment": "Cytotoxicity against human PC3 cells after 72 hrs by SRB assay", "assay_type": "functional", "settings": "PC-3, 72 h"}, "NCI-H522": {"test_system": "NCI-H522", "experiment": "Cytotoxicity against human NCI-H522 cells after 72 hrs by SRB assay", "assay_type": "functional", "settings": "NCI-H522, 72 h"}, "SK-MEL-2": {"test_system": "SK-MEL-2", "experiment": "Cytotoxicity against human SK-MEL-2 cells after 72 hrs by SRB assay", "assay_type": "functional", "settings": "SK-MEL-2, 72 h"}, "[3]": {"experiment": "Cytotoxicity against human OVCAR3 cells after 72 hrs by SRB assay", "assay_type": "functional", "settings": "OVCAR-3, 72 h"}, "SK-MEL-28": {"test_system": "SK-MEL-28", "experiment": "Cytotoxicity against human SK-MEL-28 cells after 72 hrs by SRB assay", "assay_type": "functional", "settings": "SK-MEL-28, 72 h"}, "A549": {"test_system": "A549", "experiment": "Cytotoxicity against human A549 cells after 72 hrs by SRB assay", "assay_type": "functional, cell-based", "settings": "A549, 72 h"}, "[4]": {"experiment": "Cytotoxicity against human TK10 cells after 72 hrs by SRB assay", "assay_type": "functional", "settings": "TK-10, 72 h"}, "[5]": {"settings": "read-out: LC50 (the source's name)"}},
  "data": [
    {"smiles": "O=C(NC1CCCCC1)c1ccc(Nc2ncnc3c2cnn3-c2ccccc2)cc1", "values": [
      {"measurement": "GI50", "setting": "[1]", "value": 14, "unit": "µM"},
      {"measurement": "TGI", "setting": "[1]", "value": "> 100", "unit": "µM"},
      {"measurement": "CC50", "setting": "[1]; [5]", "value": "> 100", "unit": "µM"},
      {"measurement": "GI50", "setting": "M14", "value": 18.3, "unit": "µM"},
      {"measurement": "TGI", "setting": "M14", "value": "> 100", "unit": "µM"},
      {"measurement": "CC50", "setting": "M14; [5]", "value": "> 100", "unit": "µM"},
      {"measurement": "GI50", "setting": "[2]", "value": 11.8, "unit": "µM"},
      {"measurement": "TGI", "setting": "[2]", "value": 44.8, "unit": "µM"},
      {"measurement": "CC50", "setting": "[2]; [5]", "value": "> 100", "unit": "µM"},
      {"measurement": "GI50", "setting": "NCI-H522", "value": 6.4, "unit": "µM"},
      {"measurement": "TGI", "setting": "NCI-H522", "value": "> 100", "unit": "µM"},
      {"measurement": "CC50", "setting": "NCI-H522; [5]", "value": "> 100", "unit": "µM"},
      {"measurement": "GI50", "setting": "SK-MEL-2", "value": 13.6, "unit": "µM"},
      {"measurement": "TGI", "setting": "SK-MEL-2", "value": 36.2, "unit": "µM"},
      {"measurement": "CC50", "setting": "SK-MEL-2; [5]", "value": 96.3, "unit": "µM"},
      {"measurement": "GI50", "setting": "[3]", "value": 14.3, "unit": "µM"},
      {"measurement": "TGI", "setting": "[3]", "value": "> 100", "unit": "µM"},
      {"measurement": "CC50", "setting": "[3]; [5]", "value": "> 100", "unit": "µM"},
      {"measurement": "GI50", "setting": "SK-MEL-28", "value": 3.79, "unit": "µM"},
      {"measurement": "TGI", "setting": "SK-MEL-28", "value": "> 100", "unit": "µM"},
      {"measurement": "CC50", "setting": "SK-MEL-28; [5]", "value": "> 100", "unit": "µM"},
      {"measurement": "GI50", "setting": "A549", "value": 4.38, "unit": "µM"},
      {"measurement": "IC50", "setting": "A549", "value": 66.6, "unit": "µM"},
      {"measurement": "LC50", "setting": "A549", "value": "> 100", "unit": "µM"},
      {"measurement": "TGI", "setting": "A549", "value": 51.3, "unit": "µM"},
      {"measurement": "GI50", "setting": "[4]", "value": 16.5, "unit": "µM"},
      {"measurement": "TGI", "setting": "[4]", "value": 49.5, "unit": "µM"},
      {"measurement": "CC50", "setting": "[4]; [5]", "value": "> 100", "unit": "µM"}
    ]}
  ]
}
